Columns and labels:
[1] = humans; cited from earlier work
[2] = Kinetics, tolerance and bioavailability study in healthy volunteers (nasal administration); assay type: in vivo, humans; conditions: human, plasma, inhaled or intranasal, formulation of Example 1, deduced from the kinetics results, read-out: bioavailability of piribedil administered by the nasal route
Method: Kinetics, Tolerance and Bioavailability Study in Healthy Volunteers
A study was carried out in 24 healthy volunteers in order to assess the local tolerance of the pharmaceutical composition according to the invention and also the kinetics of the formulation.
This study was carried out using the formulation described in Example 1, administered with the aid of a metering pump which delivers 100 μl of solution on each spray. The doses of piribedil tested are as follows: 0.1 mg, 0.25 mg, 0.5 mg, 1 mg and 2 mg, administered using two sprays each of 100 μl.

For `c1cnc(N2CCN(Cc3ccc4c(c3)OCO4)CC2)nc1` [piribedil, Piribedil], the “bioavailability by the oral route in relation to the parenteral route” value [1] is given as “low” and the bioavailability [2] is given as 50 to 70%.
